Data from patent publication US9879303B2, “Chromogenic glucuronidase substrates and uses” (Glycosynth Limited, priority 2013, dated 2018).
Structures can show the parent of a compound that is named as a salt.

System: E. coli clinical isolates
Assay: screen of strains on agar plates (CPS ID 3 or Columbia agar)
Format: cell-based
Set-up: key to colour: Red, Green, Black or Purple mean strong colour; Red, Green, Black or Purple mean strong colour; Red, Green, Black or Purple mean strong colour; Red, Green, Black or Purple mean strong colour; +/− means less colour than strong; Tr means a trace of colour, less than +/−; — means no colour
Settings: for colour: 37° C. 18 hours
Text: In order to obtain a fuller picture of the sensitivity of the substrates, they were screened with 100 different clinical isolates of E. coli in a liquid medium containing FAC. The isolates were chosen at random from the Microbiology Department, Freeman Hospital, Newcastle Upon Tyne, UK. The effectiveness of the new substrates was compared with three other media which all contained indoxyl-β-D-glucuronides. One was a commercial medium, CPS ID 3 (bioMérieux SA, Lyon, France). […] This medium was employed as a control. Among the β-D-glucuronidase producing strains of E. coli there is a large variation in the quantity of the enzyme produced and it is almost certain that the CPS ID 3 medium has been rigorously optimised to allow good growth of all the target organisms and maximum expression of the target enzymes. Therefore, two indoxyl glucuronides, X-β-D-glucuronide CHA salt and Rose-β-D-glucuronide CHA salt were also tested in a simple agar medium to allow a direct comparison of the sensitivity of these Indoxyl glucuronides when used in a medium that has not been optimised for the growth of the target organism. The comparison of the results for Rose-β-D-glucuronide and the CPS ID 3 medium was of particular significance as the commercial medium also uses Rose-β-D-glucuronide for the detection of E. coli. For consistency, the four glucuronides were all chosen as their CHA salts. As already stated, it is not anticipated that the salt form is critical to their performance. Currently. X-β-D-glucuronide is often used as either the CHA salt or the sodium salt. Brenner and colleagues [K. P. Brenner et al, Appl. Environ. Microbiol., 59, 3534-3544, (1993)] found no difference in the performance of the CHA and sodium salt forms with their application using indoxyl-β-D-glucuronide, neither in respect of colour development nor in the recovery of E. coli.
The two indoxyl glucuronides used produce insoluble endpoints following hydrolysis, as does the CPS ID 3 medium. It was therefore necessary to test these two substrates on agar plates. In contrast, catechol-β-D-glucuronide (1) and DHN-β-D-glucuronide (2b) give much more soluble endpoints best suited to liquid media and were therefore tested in a broth medium. Each broth was prepared using proteose peptone (Oxoid, Basingstoke, UK) (2 g), NaCl (1 g) and FAC (100 mg) in DI water (180 mL). This mixture was autoclaved and cooled to room temperature before being dispensed into bijoux (100×1.8 mL). Catechol β-D-glucuronide CHA salt (1) or DHN-β-D-glucuronide CHA salt (2b) (60 mg) were each dissolved in water (20 mL) and filtered to sterilize before being aseptically dispensed into successive bijoux (0.2 mL) containing the broth solution. The broth/substrate solutions were then inoculated with bacterial suspensions made up to 0.5 McFarland standard (2 μL per bijoux). X-β-D-glucuronide CHA salt (Glycosynth Ltd, Warrington, UK) (10 mg) was dissolved in NMP (200 μL). Rose-β-D-glucuronide CHA salt (Glycosynth Ltd, Warrington, UK) (20 mg) was dissolved in NMP (200 μL). These solutions were then added to Columbia agar (Oxoid, Basingstoke, UK) (100 mL) and inoculated with bacterial suspensions made up to 0.5 McFarland standard (1 μL). The plates and broths were incubated at 37° C. for 18 hours in air.

[1] = 100 E. coli strains after 18 h incubation

**Q.** How did the “% Sensitivity” value [1] turn out when `O=C(O)[C@H]1O[C@@H](Oc2c[nH]c3cc(Cl)ccc23)[C@H](O)[C@@H](O)[C@@H]1O` [Rose-β-D-glucuronide CHA salt, 6-chloro-3-indolyl β-D-glucuronide] was run?
**A.** 81%

**Q.** And the Negative strains [1]?
**A.** 19

**Q.** What about the Positive strains [1] of the same compound?
**A.** 81

**Q.** What about the colour (E. coli 260262P) of the same compound?
**A.** Red

**Q.** And the colour (E. coli 260280Z)?
**A.** Red

**Q.** And the colour (E. coli 260310H)?
**A.** Red

**Q.** What about the colour (E. coli 260313A) of the same compound?
**A.** —

**Q.** What about the colour (E. coli 260316T) of the same compound?
**A.** —

**Q.** What about the colour (E. coli 260327V) of the same compound?
**A.** Red

**Q.** And the colour (E. coli 260330Y)?
**A.** Red

**Q.** And the colour (E. coli 260333P)?
**A.** —

**Q.** What about the colour (E. coli 260345F) of the same compound?
**A.** Red

**Q.** What about the colour (E. coli 260348K) of the same compound?
**A.** Red

**Q.** What about the colour (E. coli 260354W) of the same compound?
**A.** Red

**Q.** And the colour (E. coli 260364H)?
**A.** —

**Q.** What about the colour (E. coli 260370C) of the same compound?
**A.** Red

**Q.** What about the colour (E. coli 260375E) of the same compound?
**A.** Red

**Q.** What about the colour (E. coli 260390B) of the same compound?
**A.** —

**Q.** And the colour (E. coli 260396Z)?
**A.** Red

**Q.** And the colour (E. coli 260398Q)?
**A.** Red

**Q.** What about the colour (E. coli 260400N) of the same compound?
**A.** —

**Q.** What about the colour (E. coli 260401Q) of the same compound?
**A.** Red

**Q.** And the colour (E. coli 260402H)?
**A.** Red

**Q.** What about the colour (E. coli 260404W) of the same compound?
**A.** Red

**Q.** And the colour (E. coli 260405P)?
**A.** Red

**Q.** And the colour (E. coli 260406A)?
**A.** —

**Q.** What about the colour (E. coli 260406Y) of the same compound?
**A.** Red

**Q.** And the colour (E. coli 260407F)?
**A.** Red

**Q.** And the colour (E. coli 260408C)?
**A.** Red

**Q.** What about the colour (E. coli 260411Z) of the same compound?
**A.** Red

**Q.** What about the colour (E. coli 260412Q) of the same compound?
**A.** Red

**Q.** And the colour (E. coli 260414H)?
**A.** Red

**Q.** What about the colour (E. coli 260415Y) of the same compound?
**A.** Red

**Q.** What about the colour (E. coli 260416W) of the same compound?
**A.** —

**Q.** And the colour (E. coli 260417P)?
**A.** Red

**Q.** And the colour (E. coli 260422Y)?
**A.** Red

**Q.** And the colour (E. coli 260424P)?
**A.** Red

**Q.** And the colour (E. coli 260425A)?
**A.** Red

**Q.** What about the colour (E. coli 260426F) of the same compound?
**A.** Red

**Q.** What about the colour (E. coli 260428T) of the same compound?
**A.** Red

**Q.** What about the colour (E. coli 260431N) of the same compound?
**A.** Red

**Q.** What about the colour (E. coli 260432E) of the same compound?
**A.** Red

**Q.** What about the colour (E. coli 260433H) of the same compound?
**A.** Red

**Q.** What about the colour (E. coli 260434Y) of the same compound?
**A.** Red

**Q.** And the colour (E. coli 260435W)?
**A.** Red

**Q.** And the colour (E. coli 260436P)?
**A.** Red

**Q.** What about the colour (E. coli 260437A) of the same compound?
**A.** Tr. Red

**Q.** What about the colour (E. coli 260438F) of the same compound?
**A.** Red

**Q.** And the colour (E. coli 260439C)?
**A.** Red

**Q.** What about the colour (E. coli 260440S) of the same compound?
**A.** Red

**Q.** And the colour (E. coli 260441G)?
**A.** Red

**Q.** What about the colour (E. coli 260458Y) of the same compound?
**A.** Red

**Q.** What about the colour (E. coli 260459W) of the same compound?
**A.** Red

**Q.** And the colour (E. coli 260463D)?
**A.** Red

**Q.** What about the colour (E. coli 260464G) of the same compound?
**A.** Red

**Q.** What about the colour (E. coli 260471B) of the same compound?
**A.** —

**Q.** What about the colour (E. coli 260478N) of the same compound?
**A.** —

**Q.** What about the colour (E. coli 260479Q) of the same compound?
**A.** Red

**Q.** What about the colour (E. coli 260480M) of the same compound?
**A.** Red

**Q.** What about the colour (E. coli 260481J) of the same compound?
**A.** Red

**Q.** And the colour (E. coli 260483R)?
**A.** —

**Q.** What about the colour (E. coli 260485D) of the same compound?
**A.** Red

**Q.** And the colour (E. coli 260486L)?
**A.** Red

**Q.** And the colour (E. coli 260492J)?
**A.** Red

**Q.** And the colour (E. coli 260494B)?
**A.** Red

**Q.** What about the colour (E. coli 260495R) of the same compound?
**A.** —

**Q.** And the colour (E. coli 260497D)?
**A.** Red

**Q.** What about the colour (E. coli 260502G) of the same compound?
**A.** Red

**Q.** And the colour (E. coli 260503Z)?
**A.** Red

**Q.** And the colour (E. coli 260504N)?
**A.** Red

**Q.** What about the colour (E. coli 260505Q) of the same compound?
**A.** —

**Q.** And the colour (E. coli 260506E)?
**A.** Red

**Q.** What about the colour (E. coli 260508Y) of the same compound?
**A.** Red

**Q.** What about the colour (E. coli 260509W) of the same compound?
**A.** Red

**Q.** What about the colour (E. coli 260510R) of the same compound?
**A.** Red

**Q.** And the colour (E. coli 260511X)?
**A.** Red

**Q.** What about the colour (E. coli 260514G) of the same compound?
**A.** —

**Q.** What about the colour (E. coli 260515Z) of the same compound?
**A.** Red

**Q.** What about the colour (E. coli 260521S) of the same compound?
**A.** Red

**Q.** What about the colour (E. coli 260522Z) of the same compound?
**A.** Red

**Q.** And the colour (E. coli 260532S)?
**A.** Red

**Q.** And the colour (E. coli 260533G)?
**A.** Red

**Q.** What about the colour (E. coli 260536Q) of the same compound?
**A.** Red

**Q.** And the colour (E. coli 260537E)?
**A.** —

**Q.** What about the colour (E. coli 260538H) of the same compound?
**A.** —

**Q.** And the colour (E. coli 260539Y)?
**A.** Red

**Q.** What about the colour (E. coli 260541R) of the same compound?
**A.** Red

**Q.** What about the colour (E. coli 260545G) of the same compound?
**A.** Red

**Q.** And the colour (E. coli 260547N)?
**A.** Red

**Q.** What about the colour (E. coli 260548Q) of the same compound?
**A.** Red

**Q.** What about the colour (E. coli 260549E) of the same compound?
**A.** Red

**Q.** And the colour (E. coli 260553X)?
**A.** —

**Q.** What about the colour (E. coli 260554D) of the same compound?
**A.** Red

**Q.** What about the colour (E. coli 260555L) of the same compound?
**A.** Red

**Q.** What about the colour (E. coli 260563B) of the same compound?
**A.** Red

**Q.** And the colour (E. coli 260564R)?
**A.** Red

**Q.** And the colour (E. coli 260578D)?
**A.** —

**Q.** And the colour (E. coli 2603121P)?
**A.** —

**Q.** And the colour (E. coli 2604399E)?
**A.** Red

**Q.** And the colour (E. coli O157 non-toxigenic)?
**A.** —

**Q.** What about the “colour of positive colonies” value (in words) of the same compound?
**A.** red colonies
